Assay results taken from publication PMC10628895, “Conformationally Selective 2-Aminotetralin Ligands Targeting the alpha2A- and alpha2C-Adrenergic Receptors” (ACS Chemical Neuroscience, 2023).
Read-outs that look alike come from different tables or passages of the source.

Legend:
[1] = molecular target: T1, human wild-type α2AR (Homo sapiens, UniProt P08913); experiment: Radioligand binding with [3H]rauwolscine (competition and saturation), membranes of transfected HEK293 cells; design: host or cells: mouse connective-tissue cells stably expressing the receptor
T1 sequence (P08913 1-465): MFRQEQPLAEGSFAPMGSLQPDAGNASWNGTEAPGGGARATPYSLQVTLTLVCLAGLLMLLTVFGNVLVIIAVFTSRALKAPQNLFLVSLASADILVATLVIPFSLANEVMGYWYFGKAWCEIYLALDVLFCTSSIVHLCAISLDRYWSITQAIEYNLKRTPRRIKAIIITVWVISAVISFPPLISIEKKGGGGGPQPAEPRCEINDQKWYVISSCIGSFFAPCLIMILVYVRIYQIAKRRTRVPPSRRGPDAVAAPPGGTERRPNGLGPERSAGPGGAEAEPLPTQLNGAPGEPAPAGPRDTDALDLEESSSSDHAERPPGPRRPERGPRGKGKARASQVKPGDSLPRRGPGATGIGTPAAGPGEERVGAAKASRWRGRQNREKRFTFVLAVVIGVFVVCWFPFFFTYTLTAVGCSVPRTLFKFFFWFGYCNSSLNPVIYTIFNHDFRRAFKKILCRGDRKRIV

[2] = molecular target: T2, human wild-type α2CR (Homo sapiens, UniProt P18825); experiment: as above; design: host or cells: mouse connective-tissue cells stably expressing the receptor
T2 sequence (P18825 1-462): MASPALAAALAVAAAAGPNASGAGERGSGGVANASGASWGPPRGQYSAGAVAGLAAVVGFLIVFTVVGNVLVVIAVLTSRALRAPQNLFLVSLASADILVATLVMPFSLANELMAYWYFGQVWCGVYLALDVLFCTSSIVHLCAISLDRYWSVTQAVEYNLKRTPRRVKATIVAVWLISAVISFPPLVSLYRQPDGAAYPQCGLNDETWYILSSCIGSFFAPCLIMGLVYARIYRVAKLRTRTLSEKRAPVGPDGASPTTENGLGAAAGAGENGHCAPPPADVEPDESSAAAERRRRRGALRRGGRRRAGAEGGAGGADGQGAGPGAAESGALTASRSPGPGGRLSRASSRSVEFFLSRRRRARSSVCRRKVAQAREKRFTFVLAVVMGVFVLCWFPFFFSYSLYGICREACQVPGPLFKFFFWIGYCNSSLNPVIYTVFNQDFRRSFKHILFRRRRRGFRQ

[3] = molecular target: T2, human wild-type α2CR; experiment: as above; design: host or cells: mouse connective-tissue cells stably expressing the receptor; conditions: [3H]rauwolscine competition, mean ± SD, read-out: Affinity (Ki ± SD; nM) α2CR
Procedure: Cells were grown in 10-cm plates and allowed to reach log growth phase (equivalent to about 70–90% confluency) before transfection. A transfection cocktail containing 3 mL of Opti-MEM (Gibco, Waltham, MA), 10 μg of cDNA, and 30 μL of linear polyethyleneimine “max” (molecular weight ∼ 40 000 g/mol, Polysciences Inc., Warrington, PA) was added to each plate and then incubated with an additional 3 mL of supplemented MEM for 48 h. Human wild-type α2-adrenergic GPCR clones, encoded in a pcDNA3.1(+) vector, were obtained from the cDNA Resource Center (Bloomsburg, PA). Cells were transiently transfected to express the α2AR or α2CR, and membranes were isolated for use in radioligand binding assays.
Cell membrane isolates were obtained following transfection procedure via a series of three 10-min, 12000g centrifugations homogenized via a tissue grinder. Saturation and competitive radioligand displacement assays conducted in 96-well assay plates were performed using membrane isolates. The bicinchoninic acid (BCA) protein assay (Thermo Scientific) kit was used to quantify protein expression.
Each concentration was assessed in quadruplicate, and each competitive binding assay was performed in at least three distinct replicates. Nonspecific binding was determined using 10 μM clozapine. Data were analyzed using the nonlinear regression function “One-site-Fit Ki” in Prism, wherein the Ki was calculated from the experimentally derived IC50 via the Cheng–Prusoff equation[58] [drawing 1]

[4] = molecular target: T1, human wild-type α2AR; experiment: cAMP accumulation, LANCE Ultra cAMP TR-FRET immunoassay, cells stably expressing α2AR; conditions: for functional activity at the α2AR (in words): cAMP formation
Procedure: (§1) Lofexidine was chosen as the reference ligand due to its ongoing use in in vivo studies evaluating 5-SATs for alleviation of opioid withdrawal symptoms.
(§2) Percent change in cAMP over forskolin-stimulated baseline was determined, and then normalized as a function of the percent change stimulated by lofexidine.
(§3) Receptor-mediated inhibition or stimulation of adenylyl cyclase was measured in cells stably expressing either α2AR or α2CR a LANCE Ultra cAMP assay kit (PerkinElmer, Waltham, MA), a time-resolved fluorescence energy transfer (TR-FRET) immunoassay, in a manner consistent with the manufacturer’s recommendations. Minor modifications were made to optimize conditions. […] Each concentration of ligand was applied in triplicate to the cells. A forskolin concentration of 600 nM was applied to the cells to generate a baseline, with the concentration chosen to accommodate the assay window. Cells were incubated for 30 min at 37 °C (α2AR assays) and for 2 h at room temperature (α2CR assays); time was chosen based on optimization-determined ideal conditions and activation kinetics.[59] Cells were then lysed and incubated with Eu-chelated tracer and Ulight anti-cAMP for 1 h. […] The concentration of cAMP present in each well was interpolated from this curve using the raw fluorescence value.

[5] = molecular target: T2, human wild-type α2CR; experiment: cAMP accumulation, LANCE Ultra cAMP TR-FRET immunoassay, cells stably expressing α2CR; conditions: for functional activity at the α2CR (in words): cAMP formation
Procedure: as §1, §2, §3

[6] = system: mouse models of autism spectrum disorder (ASD); design: method as in PMID 32566916, PMID 26011730, PMID 36473166; conditions: orally active; cited from earlier work
[7] = system: rodents; conditions: cited from earlier work
[8] = [3H]rauwolscine competition, HEK293 membranes, mean ± SD, read-out: Affinity (Ki ± SD; nM) α2AR
[9] = read-out: Emax α2AR, percent maximum response normalized to lofexidine, mean ± SD, NC = no significant change from forskolin-established baseline signaling

SMILES	Ki [1] [nM]	Ki [2] [µM]	IC50 [5] [µM]	functional activity at the α2CR (in words) [5]	further results
CN(C)[C@@H]1CCc2c(cccc2-c2ccccc2)C1 [(R)-1]	320 ± 40	0.5 ± 0.075	–	–	–
CN(C)[C@@H]1CCc2c(cccc2-c2ccccc2F)C1 [(R)-2, (R)-5-(2-Fluorophenyl)-N,N-dimethyl-1,2,3,4-tetrahydronaphthalen-2-amine]	2500 ± 810	0.68 ± 0.12	–	–	–
CN(C)[C@@H]1CCc2c(cccc2-c2ccccc2Cl)C1 [(R)-3]	490 ± 65	0.5 ± 0.086	–	–	–
Fc1ccccc1-c1cccc2c1CC[C@@H](N1CCCC1)C2 [(R)-4, (R)-1-(5-(2-Fluorophenyl)-1,2,3,4-tetrahydronaphthalen-2-yl)pyrrolidine]	–	–	–	–	Ki [1, 8]: 1000 ± 170 nM; Ki [3]: 1500 ± 270 nM
CCCN(CCC)[C@@H]1CCc2c(cccc2-c2ccccc2)C1 [(R)-5]	190 ± 30	0.58 ± 0.054	–	–	–
CCCN(CCC)[C@@H]1CCc2c(cccc2-c2ccccc2Cl)C1 [(R)-6]	94 ± 26	0.34 ± 0.095	–	–	–
CN(C)[C@@H]1CCc2c(cccc2-c2ccco2)C1 [(R)-8]	1300 ± 330	0.46 ± 0.072	–	–	–
CN(C)[C@@H]1CCc2c(cccc2-c2cccn2C)C1 [(R)-10]	130 ± 33	0.31 ± 0.039	–	–	–
CN(C)[C@H]1CCc2c(cccc2-c2ccccc2)C1 [(S)-1]	6.9 ± 1.8	0.035 ± 0.0046	0.37 ± 0.0019	inverse agonism	EC50 [4]: 0.0014 ± 0.00023 µM; functional activity at the α2AR (in words) [4]: agonist activity; Emax α2AR ([4]; percent maximum response normalized to lofexidine, mean ± SD, NC = no significant change from forskolin-established baseline signaling, listed as 1 (5-PAT)): 24 ± 4.0%; Emax [4, 9]: ~25%
CN(C)[C@H]1CCc2c(cccc2-c2ccccc2F)C1 [(S)-2, (2S)-5-(2′-fluorophenyl)-N,N-dimethyl-1,2,3,4-tetrahydronaphthalen-2-amine]	3.5 ± 0.97	0.019 ± 0.0046	0.079 ± 0.0017	inverse agonists	effect in mouse models of autism spectrum disorder (in words) [6]: improves repetitive behaviors, social behaviors, anxiety behaviors, and ameliorates seizures; effect on locomotor activity (in words) [7]: did not impact locomotor activity; EC50 [4]: 0.00055 ± 0.00015 µM; Emax [4, 9]: 45 ± 1.9%
CN(C)[C@H]1CCc2c(cccc2-c2ccccc2Cl)C1 [(S)-3]	5.1 ± 0.52	0.017 ± 0.0041	0.13 ± 0.0024	inverse agonists	EC50 [4]: 0.0013 ± 0.00018 µM; Emax [4, 9]: 47 ± 2.9%
Fc1ccccc1-c1cccc2c1CC[C@H](N1CCCC1)C2 [(S)-4, (S)-1-(5-(2-Fluorophenyl)-1,2,3,4-tetrahydronaphthalen-2-yl)pyrrolidine]	–	–	0.048 ± 0.0018	inverse agonists	Ki [1, 8]: 5.7 ± 1.4 nM; Ki [3]: 5.2 ± 0.3 nM; EC50 [4]: 0.0011 ± 0.00016 µM; Emax ([4]; read-out: Emax α2AR): 46 ± 3%; fold higher potency than 5-PAT at the α2CR ([5]; inverse agonist potency): about 9 fold; fold higher potency than CPT at the α2CR ([5]; inverse agonist potency): ~3 fold; fold higher potency than FPT at the α2CR ([5]; inverse agonist potency): about 2 fold
CCCN(CCC)[C@H]1CCc2c(cccc2-c2ccccc2)C1 [(S)-5]	180 ± 19	0.37 ± 0.014	–	–	–
CCCN(CCC)[C@H]1CCc2c(cccc2-c2ccccc2Cl)C1 [(S)-6]	67 ± 11	0.28 ± 0.02	–	–	–
CN(C)[C@H]1CCc2c(cccc2-c2cccc3ccccc23)C1 [(S)-7]	27 ± 6.3	0.18 ± 0.038	0.26 ± 0.044	inverse agonism	EC50 [4]: 0.082 ± 0.0083 µM; fold less potent than FPT at the α2AR ([4]; agonist potency): 150 fold; functional activity at the α2AR (in words) [4]: agonist activity; Emax [4, 9]: 14 ± 4.3%; fold less efficacious than the other 5-SATs at the α2CR ([5]; inverse agonist efficacy): roughly 2 fold
CN(C)[C@H]1CCc2c(cccc2-c2ccco2)C1 [(S)-8]	59 ± 1.4	0.15 ± 0.0035	–	–	–
CN(C)[C@H]1CCc2c(cccc2-c2cccs2)C1 [(S)-9]	6.2 ± 1.5	0.048 ± 0.00057	–	neutral antagonist	fold higher affinity compared to the FAT compound at α2AR [1]: 5–10 fold; functional activity at the α2AR (in words) [4]: no significant change over baseline
CN(C)[C@H]1CCc2c(cccc2-c2cccn2C)C1 [(S)-10]	12 ± 0.41	0.05 ± 0.0041	0.092 ± 0.0059	–	fold higher affinity compared to the FAT compound at α2AR [1]: 5–10 fold; IC50 [4]: 0.011 ± 0.00026 µM; functional activity at the α2AR (in words) [4]: inverse agonist
CC(Oc1c(Cl)cccc1Cl)C1=NCCN1 (centres unmarked) [Lofexidine, reference compound]	–	–	–	agonist	Ki [3]: 22 ± 4.6 nM; EC50 [5]: 0.0049 ± 0.0012 µM; Emax ([5]; read-out: Emax α2CR): 100 ± 3.4%
